Key:
[1] = test system: NF-κB; test: NF-κB assay: THP1-NF-κB-LUC cells, LPS-stimulated secreted luciferase; assay type: cell-based; conditions: THP1-NF-κB-LUC cells, LPS-stimulated; read-out: IC50 (NF-κB assay)
Procedure, shortened: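 THP1-NF-κB-LUC cells (25k/well) were pretreated with compounds for 2 h, then stimulated with LPS (10 ng/mL) for 18 h. Secreted luciferase was measured and normalized to vehicle, and IC50 was fitted from the concentration series.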

[2] = test system: TNF release; test: TNF assay: TNF release from LPS-stimulated human PBMCs (TNF ELISA); assay type: cell-based; conditions: PBMC; LPS-stimulated human PBMCs, TNF ELISA; read-out: IC50 (TNF assay)
Procedure, shortened: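 TNF ELISA on supernatants read-out; cells were 10k human PBMCs/well given LPS at 10 ng/mL for 18 h after a 2 h compound pre-incubation across a concentration series, with IC50 derived for suppression of TNF secretion.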

IC50 [1] [µM] | IC50 [2] [µM] | SMILES
> 10 | > 10 | CC(C)[S+]([O-])c1sc(-c2cccc(F)c2)nc1S(=O)(=O)c1ccc(Cl)cc1 (stereo not drawn) [BC19620]
1 to 10 | 1 to 10 | CCCS(=O)(=O)c1sc(-c2ccc(Cl)cc2)nc1S(=O)(=O)c1ccc(Cl)cc1 [BC19621]
1 to 10 | 1 to 10 | CC(C)S(=O)(=O)c1sc(-c2ccc(Cl)cc2)nc1S(=O)(=O)c1ccc(Cl)cc1 [BC19622]
> 10 | > 10 | O=S(=O)(c1ccc(Cl)cc1)c1nc(-c2ccc(Cl)cc2)sc1S(=O)(=O)C1CCCCC1 [BC19623]
1 to 10 | 1 to 10 | CCCS(=O)(=O)c1sc(-c2ccccc2)nc1S(=O)(=O)c1ccc(Cl)cc1 [BC19624]
1 to 10 | 1 to 10 | COCCS(=O)(=O)c1sc(-c2ccccc2)nc1S(=O)(=O)c1ccc(Cl)cc1 [BC19625]
1 to 10 | 1 to 10 | C[S+]([O-])c1sc(-c2ccccc2F)nc1S(=O)(=O)c1ccc(Cl)cc1 (stereo not drawn) [BC19626]
1 to 10 | > 10 | CCC[S+]([O-])c1sc(-c2ccccc2F)nc1S(=O)(=O)c1ccc(Cl)cc1 (stereo not drawn) [BC19627]
> 10 | > 10 | CCCS(=O)(=O)c1sc(-c2ccccc2F)nc1S(=O)(=O)c1ccc(Cl)cc1 [BC19628]
> 10 | > 10 | CC(C)[S+]([O-])c1sc(-c2ccccc2F)nc1S(=O)(=O)c1ccc(Cl)cc1 (stereo not drawn) [BC19629]
> 10 | 1 to 10 | CC(C)C[S+]([O-])c1sc(-c2ccccc2F)nc1S(=O)(=O)c1ccc(Cl)cc1 (stereo not drawn) [BC19630]
1 to 10 | > 10 | CC(C)CS(=O)(=O)c1sc(-c2ccccc2F)nc1S(=O)(=O)c1ccc(Cl)cc1 [BC19631]
> 10 | > 10 | O=S(=O)(c1ccc(Cl)cc1)c1nc(-c2ccccc2F)sc1[S+]([O-])CC1CC1 (stereo not drawn) [BC19632]
1 to 10 | 1 to 10 | O=S(=O)(CC1CC1)c1sc(-c2ccccc2F)nc1S(=O)(=O)c1ccc(Cl)cc1 [BC19633]
> 10 | > 10 | Cn1c(-c2ccccc2)nc(S(=O)(=O)c2ccc(F)cc2)c1S(=O)(=O)CC1CC1 [BC19634]
> 10 | > 10 | CC(C)[S+]([O-])c1sc(C2CCCCC2)nc1S(=O)(=O)c1ccc(Cl)cc1 (stereo not drawn) [BC19635]
> 10 | > 10 | CC(C)S(=O)(=O)c1sc(C2CCCCC2)nc1S(=O)(=O)c1ccc(Cl)cc1 [BC19636]
> 10 | > 10 | CC(C)C[S+]([O-])c1sc(C2CCCCC2)nc1S(=O)(=O)c1ccc(Cl)cc1 (stereo not drawn) [BC19637]
> 10 | > 10 | CC(C)CS(=O)(=O)c1sc(C2CCCCC2)nc1S(=O)(=O)c1ccc(Cl)cc1 [BC19638]
> 10 | > 10 | O=S(=O)(CC1CC1)c1sc(C2CCCCC2)nc1S(=O)(=O)c1ccc(Cl)cc1 [BC19639]
> 10 | > 10 | C[S+]([O-])c1sc(C2CCCCC2)nc1S(=O)(=O)c1ccc(Cl)cc1 (stereo not drawn) [BC19640]
> 10 | > 10 | CS(=O)(=O)c1sc(C2CCCCC2)nc1S(=O)(=O)c1ccc(Cl)cc1 [BC19641]
> 10 | > 10 | COCC[S+]([O-])c1sc(C2CCCCC2)nc1S(=O)(=O)c1ccc(Cl)cc1 (stereo not drawn) [BC19642]
> 10 | > 10 | Cn1c(-c2ccccc2)nc(S(=O)(=O)c2ccc(F)cc2)c1[S+](C)[O-] (stereo not drawn) [BC19644]
> 10 | > 10 | CCC[S+]([O-])c1sc(C2CCCCC2)nc1S(=O)(=O)c1ccc(Cl)cc1 (stereo not drawn) [BC19645]
> 10 | > 10 | CCCS(=O)(=O)c1sc(C2CCCCC2)nc1S(=O)(=O)c1ccc(Cl)cc1 [BC19646]
> 10 | 1 to 10 | O=S1(=O)CCCn2c(-c3ccccc3)nc(S(=O)(=O)c3ccc(Cl)cc3)c21 [BC19647]
1 to 10 | > 10 | O=C1CCOc2cc(S(=O)(=O)Nc3ccc(Cl)cc3)c(Br)cc2N1 [BC19656]

Second part, the molecule before the results:

SMILES | IC50 [1] [µM] | IC50 [2] [µM]
CN1CCN(CCNC(=O)Nc2ccc3nc(-c4ccc(F)cc4)c(-c4ccc(F)cc4)nc3c2)CC1 [BC19616] | 0.1 to 1 | 1 to 10
O=C(NCCCN1CCCC1=O)Nc1ccc2nc(-c3ccc(F)cc3)c(-c3ccc(F)cc3)nc2c1 [BC19617] | 0.1 to 1 | > 10
CN1CCN(C(=O)c2ccc3nc(-c4ccc(F)cc4)c(-c4ccc(F)cc4)nc3n2)CC1 [BC19618] | 0.1 to 1 | > 10
CNc1ncc(-c2ccc3nc(-c4ccc(F)cc4)c(-c4ccc(F)cc4)nc3c2)o1 [BC19619] | 1 to 10 | > 10
O=C1CCOc2c(cc(Br)cc2S(=O)(=O)Nc2ccc(OC(F)(F)F)cc2)N1 [BC19648] | < 0.1 | > 10
O=C1CCOc2c(cc(Br)cc2S(=O)(=O)Nc2cccc(F)c2)N1 [BC19649] | < 0.1 | > 10
O=C1CCOc2c(cc(Br)cc2S(=O)(=O)Nc2cccc(Cl)c2)N1 [BC19650] | < 0.1 | > 10
Cc1ccc(NS(=O)(=O)c2cc(Br)cc3c2OCCC(=O)N3)cc1Cl [BC19651] | 0.1 to 1 | > 10
O=C1CCOc2cc(S(=O)(=O)Nc3ccc(OC(F)(F)F)cc3)c(Br)cc2N1 [BC19652] | 1 to 10 | > 10
Cc1ccc(NS(=O)(=O)c2cc3c(cc2Br)NC(=O)CCO3)cc1F [BC19653] | > 10 | > 10
O=C1CCOc2cc(S(=O)(=O)Nc3cccc(F)c3)c(Br)cc2N1 [BC19654] | > 10 | > 10
O=C1CCOc2cc(S(=O)(=O)Nc3cccc(Cl)c3)c(Br)cc2N1 [BC19655] | > 10 | > 10
CCc1cccc(NS(=O)(=O)c2cc3c(cc2Br)NC(=O)CCO3)c1 [BC19657] | 1 to 10 | > 10
O=C1CCOc2cc(S(=O)(=O)Nc3ccc(F)cc3Cl)c(Br)cc2N1 [BC19658] | > 10 | > 10
Cc1ccc(NS(=O)(=O)c2cc3c(cc2Br)NC(=O)CCO3)cc1Cl [BC19659] | > 10 | > 10
O=C1CCOc2cc(S(=O)(=O)Nc3ccc(F)cc3)c(Br)cc2N1 [BC19660] | > 10 | > 10
Cc1ccc(NS(=O)(=O)c2cc3c(cc2Br)NC(=O)CCO3)cc1 [BC19661] | > 10 | > 10
CN1CCN(C(=O)C2CCc3nc(-c4ccc(F)cc4)c(-c4ccc(F)cc4)nc3C2)CC1 (stereo not drawn) [BC19663] | 0.1 to 1 | > 10
OCCCn1c(-c2ccc3nc(-c4ccc(F)cc4)c(-c4ccc(F)cc4)nc3c2)n[nH]c1=S [BC19664] | 0.1 to 1 | 0.1 to 1
OCCCn1cnnc1-c1ccc2nc(-c3ccc(F)cc3)c(-c3ccc(F)cc3)nc2c1 [BC19665] | < 0.1 | 1 to 10
CN1CCN(C(=O)c2cc3nc(-c4ccc(F)cc4)c(-c4ccc(F)cc4)nc3cn2)CC1 [BC19666] | 0.1 to 1 | > 10
Cn1oc(-c2ccc3nc(-c4ccc(F)cc4)c(-c4ccc(F)cc4)nc3c2)cc1=O [BC19667] | > 10 | > 10
C/N=C(\c1ccc2nc(-c3ccc(F)cc3)c(-c3ccc(F)cc3)nc2c1)N1CCN(C)CC1 [BC19668] | 0.1 to 1 | > 10
